In patent publication US20210147381A1, “1,2,3,4-SUBSTITUTED QUINOLINE COMPOUNDS AS SIP MODULATORS” (AbbVie Deutschland GmbH & Co. KG, priority 2017, published 2021):
pEC50: −log10 of the molar value. Structures can show the parent of a compound that is named as a salt.

Tests used:
Type in all cases: cell-based
[1] = target: T1, human S1P5 receptor (S1PR5) (Homo sapiens, UniProt Q9H228); assay: Intracellular Ca2+ release (method 1), agonist potency and efficacy, S1P5; details: for Emax: maximum effect in % of reference agonist phospho-fingolimod (100%), read-out: hS1P5 EMax; for pEC50: recombinant CHO-K1 cells expressing human S1PR5, aequorin, Gq/i5, Ca2+ release, read-out: S1P5 EC50 range
T1 construct: host or cells: CHO-K1
Procedure, shortened: (§1)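 CHO-K1 cells co-expressing the human S1P receptor, aequorin and Gq/i5 were loaded with Calcium 5 dye (1 h, 37° C), then equilibrated 45 min at RT in HBSS/20 mM Hepes/2.5 mM probenecid/0.1% BSA, pH 7.4. Fluorescence upon serially diluted compound fitted by 4-parameter logistic; EC50 and Emax normalized to phospho-fingolimod (100%).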

[2] = target: T2, human S1P1 receptor (S1PR1) (Homo sapiens, UniProt P21453); assay: Intracellular Ca2+ release (method 1), agonist potency, S1P1; details: CHO-K1 cells expressing human S1PR1
T2 construct: host or cells: CHO-K1
Procedure, shortened: as §1

[3] = target: T3, human S1P3 receptor (S1PR3) (Homo sapiens, UniProt Q99500); assay: Intracellular Ca2+ release (method 1), agonist potency, S1P3; details: CHO-K1 cells expressing human S1PR3
T3 construct: host or cells: CHO-K1
Experimental: Agonistic activity and efficacy of compounds was assessed in recombinant cells using method 1 described below.
Agonist potency and efficacy were assessed by measurement of intracellular Ca^2+ release. Recombinant CHO-K1 cells (Euroscreen, Brussels, Belgium) expressing human S1PR5, S1PR1, S1PR3 or S1PR4 receptors, aequorin, and GTP binding protein Gq/i5 were cultured using a medium containing nutrient mixture F-12 Ham (Sigma-Aldrich) with 10% FBS, and 100 μg/mL gentamicin and equilibrated at 5% CO2.
15,000 cells in 20 μL medium were seeded into Biocoat poly-D-Lysine coated 384 well plates (Becton Dickinson #35-6663) and grown to 95% confluency after 24 h.
Culture medium was replaced by an assay buffer consisting of HBBS with Ca^2+ and Mg^2+ (Invitrogen #14025-050), 20 mmol/L Hepes (Sigma-Aldrich #H-3375), 2.5 mmol/L probenecid (Sigma-Aldrich #P-8761, and 0.1% BSA (Sigma-Aldrich #A-7030) pH 7.4. The Calcium 5 no-wash FLIPR assay kit (Molecular Devices #5000625) was performed as described in the kit instructions. Cells were incubated with Calcium 5 dye for 1 h at 37° C., 5% CO2 in the dark. After 45 min adaptation to RT assessment of agonist stimulation of intracellular Ca^2+ release was performed by addition of test compounds at various concentrations obtained by serial dilution. Phospho-fingolimod was used as positive control and reference agonist (intrinsic activity 100%).
Agonism of test compounds at the human S1Px receptors were characterized by the EC50 values (potencies) deduced from a nonlinear 4 parametric logistic curve fit to the measured fluorescence data after normalization to the lower and upper plateaus of the fitted reference agonist's (phospho-fingolimod)effect curve and by their efficacy (Emax) values represented by their maximum achievable effects in % of the reference agonist's efficacy, which is defined as an Emax of 100%.

[4] = target: T4, human S1P4 receptor (S1PR4) (Homo sapiens, UniProt O95977); assay: Intracellular Ca2+ release (method 1), agonist potency, S1P4; details: CHO-K1 cells expressing human S1PR4
T4 construct: host or cells: CHO-K1
T4 sequence (O95977 1-384): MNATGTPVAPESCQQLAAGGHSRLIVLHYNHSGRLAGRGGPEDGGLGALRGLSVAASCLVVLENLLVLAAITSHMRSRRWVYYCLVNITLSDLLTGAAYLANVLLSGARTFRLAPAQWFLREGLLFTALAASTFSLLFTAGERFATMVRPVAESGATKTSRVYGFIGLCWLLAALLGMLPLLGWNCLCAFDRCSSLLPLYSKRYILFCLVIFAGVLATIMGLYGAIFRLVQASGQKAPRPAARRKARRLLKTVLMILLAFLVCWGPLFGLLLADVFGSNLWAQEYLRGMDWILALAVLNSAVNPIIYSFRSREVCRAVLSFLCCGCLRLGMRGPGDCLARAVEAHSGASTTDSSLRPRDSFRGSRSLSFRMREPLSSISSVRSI
Procedure, shortened: as §1

T3 sequence (Q99500 whole entry): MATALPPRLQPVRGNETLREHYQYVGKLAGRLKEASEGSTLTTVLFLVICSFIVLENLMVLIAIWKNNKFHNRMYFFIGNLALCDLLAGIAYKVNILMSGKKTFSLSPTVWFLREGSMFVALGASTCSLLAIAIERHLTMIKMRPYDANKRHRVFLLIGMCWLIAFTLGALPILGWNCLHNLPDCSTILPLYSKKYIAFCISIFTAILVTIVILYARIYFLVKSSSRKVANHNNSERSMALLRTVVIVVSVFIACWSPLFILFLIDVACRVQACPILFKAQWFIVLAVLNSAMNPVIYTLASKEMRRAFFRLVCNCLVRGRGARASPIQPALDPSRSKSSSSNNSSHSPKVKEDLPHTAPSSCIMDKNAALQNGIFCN
T1 sequence (Q9H228 whole entry): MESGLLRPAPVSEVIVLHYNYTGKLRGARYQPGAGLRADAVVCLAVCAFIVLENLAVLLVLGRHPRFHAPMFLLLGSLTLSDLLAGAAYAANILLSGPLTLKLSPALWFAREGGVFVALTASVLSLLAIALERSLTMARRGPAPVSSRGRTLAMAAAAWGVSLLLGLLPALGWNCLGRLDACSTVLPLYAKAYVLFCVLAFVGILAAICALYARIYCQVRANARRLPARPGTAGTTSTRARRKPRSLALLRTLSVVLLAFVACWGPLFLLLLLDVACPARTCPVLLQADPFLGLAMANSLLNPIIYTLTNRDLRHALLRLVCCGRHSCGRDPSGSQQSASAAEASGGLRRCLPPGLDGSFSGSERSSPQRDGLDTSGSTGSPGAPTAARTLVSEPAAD
T2 sequence (P21453 whole entry): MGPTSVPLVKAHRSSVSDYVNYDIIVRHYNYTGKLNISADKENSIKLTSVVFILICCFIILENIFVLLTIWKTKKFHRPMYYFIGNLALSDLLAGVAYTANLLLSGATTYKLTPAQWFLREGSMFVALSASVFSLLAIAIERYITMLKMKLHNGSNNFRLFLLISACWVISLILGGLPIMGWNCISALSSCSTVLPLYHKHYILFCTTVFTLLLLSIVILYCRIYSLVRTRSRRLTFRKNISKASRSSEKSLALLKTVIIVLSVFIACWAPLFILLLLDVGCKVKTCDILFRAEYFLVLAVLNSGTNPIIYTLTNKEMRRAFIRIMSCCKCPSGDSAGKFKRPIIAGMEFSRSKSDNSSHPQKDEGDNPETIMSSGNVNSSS

Emax [1] [%] | pEC50 [1] | pEC50 ([2]; cells given as bound) | pEC50 [3] | pEC50 [4] | pEC50 ([4]; cells given as bound) | pEC50 [2] | SMILES
50 to 100 | > 8.00 | < 6.00 | < 6.00 | 6.00 to 7.00 |  |  | O=C(O)CCN1Cc2ccc(C#Cc3c(F)cccc3F)cc2C2(CC2)C1 [Compound 36, 3-(6′-((2,6-difluorophenyl)ethynyl)-1′H-spiro[cyclopropane-1,4′-isoquinolin]-2′(3′H)-yl)propanoic acid acetic acid salt (1:1)]
50 to 100 | 7.00 to 8.00 | < 6.00 | < 6.00 | 6.00 to 7.00 |  |  | Cc1ccccc1C#Cc1ccc2c(c1)C1(CC1)CN(CCC(=O)O)C2 [Compound 37, 3-(6′-(o-tolylethynyl)-1′H-spiro[cyclopropane-1,4′-isoquinolin]-2′(3′H)-yl)propanoic acid acetic acid salt (1:1)]
50 to 100 | 6.00 to 7.00 | < 6.00 | < 6.00 | 6.00 to 7.00 |  |  | O=C(O)CCN1Cc2ccc(C#Cc3cccc(Cl)n3)cc2C2(CC2)C1 [Compound 40, 3-(6′-((6-chloropyridin-2-yl)ethynyl)-1′H-spiro[cyclopropane-1,4′-isoquinolin]-2′(3′H)-yl)propanoic acid acetic acid salt (1:1)]
< 50 | 5.00 to 6.00 | < 6.00 | < 6.00 |  | < 6.00 |  | O=C(O)CCN1Cc2ccc(C#Cc3ccc(F)cc3)cc2C2(CC2)C1 [Compound 41, 3-(6′-((4-fluorophenyl)ethynyl)-1′H-spiro[cyclopropane-1,4′-isoquinolin]-2′(3′H)-yl)propanoic acid acetic acid salt (1:1)]
50 to 100 | > 8.00 | < 6.00 | < 6.00 | 6.00 to 7.00 |  |  | CC(CC(=O)O)CN1Cc2ccc(C#Cc3c(F)cccc3F)cc2C2(CC2)C1 (stereo not shown) [Compound 58, 4-(6′-((2,6-difluorophenyl)ethynyl)-1′H-spiro[cyclopropane-1,4′-isoquinolin]-2′(3′H)-yl)-3-methylbutanoic acid]

Second part, the compound before the results:

SMILES | Emax [1] [%] | pEC50 [1] | pEC50 ([2]; cells given as bound) | pEC50 [3] | pEC50 [4] | pEC50 ([4]; cells given as bound) | pEC50 [2]
O=C(O)CCN1Cc2ccc(C#Cc3ccsc3)cc2C2(CC2)C1 [Compound 38, 3-(6′-(thiophen-3-ylethynyl)-1′H-spiro[cyclopropane-1,4′-isoquinolin]-2′(3′H)-yl)propanoic acid] | 50 to 100 | 7.00 to 8.00 | < 6.00 | < 6.00 |  | < 6.00 | 
O=C(O)CCN1Cc2ccc(C#Cc3ccccc3)cc2C2(CC2)C1 [Compound 39, 3-(6′-(phenylethynyl)-1′H-spiro[cyclopropane-1,4′-isoquinolin]-2′(3′H)-yl)propanoic acid acetic acid salt (1:1)] | 50 to 100 | 6.00 to 7.00 | < 6.00 | < 6.00 |  | < 6.00 | 
CCCn1cc(C#Cc2ccc3c(c2)C2(CC2)CN(CCC(=O)O)C3)cn1 [Compound 42, 3-(6′-((1-propyl-1H-pyrazol-4-yl)ethynyl)-1′H-spiro[cyclopropane-1,4′-isoquinolin]-2′(3′H)-yl)propanoic acid acetic acid salt (1:1)] | 50 to 100 | 5.00 to 6.00 | < 6.00 | < 6.00 |  | < 6.00 | 
Cc1cccnc1C#Cc1ccc2c(c1)C1(CC1)CN(CCC(=O)O)C2 [Compound 43, 3-(6′-((3-methylpyridin-2-yl)ethynyl)-1′H-spiro[cyclopropane-1,4′-isoquinolin]-2′(3′H)-yl)propanoic acid acetic acid salt (1:1)] | 50 to 100 | 5.00 to 6.00 | < 6.00 | < 6.00 |  | < 6.00 | 
O=C(O)CCCN1Cc2ccc(C#Cc3ccc(OC4CCCC4)cc3)cc2C2(CC2)C1 [Compound 44, 4-(6′-((4-(cyclopentyloxy)phenyl)ethynyl)-1′H-spiro[cyclopropane-1,4′-isoquinolin]-2′(3′H)-yl)butanoic acid] | > 100 | > 8.00 |  | < 6.00 |  | < 6.00 | 6.00 to 7.00
CCOc1ccc(C#Cc2ccc3c(c2)C2(CC2)CN(CCCC(=O)O)C3)cc1F [Compound 45, 4-(6′-((4-ethoxy-3-fluorophenyl)ethynyl)-1′H-spiro[cyclopropane-1,4′-isoquinolin]-2′(3′H)-yl)butanoic acid] | 50 to 100 | > 8.00 | < 6.00 | < 6.00 |  | < 6.00 | 
CC(C)Oc1ccc(C#Cc2ccc3c(c2)C2(CC2)CN(CCCC(=O)O)C3)cc1 [Compound 46, 4-(6′-((4-isopropoxyphenyl)ethynyl)-1′H-spiro[cyclopropane-1,4′-isoquinolin]-2′(3′H)-yl)butanoic acid] | > 100 | > 8.00 | < 6.00 | < 6.00 |  | < 6.00 | 
O=C(O)CCCN1Cc2ccc(C#Cc3ccc(OC(F)(F)F)c(F)c3)cc2C2(CC2)C1 [Compound 47, 4-(6′-((3-fluoro-4-(trifluoromethoxy)phenyl)ethynyl)-1′H-spiro[cyclopropane-1,4′-isoquinolin]-2′(3′H)-yl)butanoic acid] | > 100 | > 8.00 | < 6.00 | < 6.00 |  | < 6.00 | 
O=C(O)CCCN1Cc2ccc(C#Cc3ccc(OC(F)(F)F)cc3)cc2C2(CC2)C1 [Compound 48, 4-(6′-((4-(trifluoromethoxy)phenyl)ethynyl)-1′H-spiro[cyclopropane-1,4′-isoquinolin]-2′(3′H)-yl)butanoic acid] | 50 to 100 | 7.00 to 8.00 | < 6.00 | < 6.00 |  | < 6.00 | 
